Values after ≈ are worked out from the molar mass of the structure shown.
Tests used:
NHDFs-UVA-IL-6 = assay: UVA-induced IL-6 release from NHDFs (ELISA); assay type: cell-based, human
Protocol: (§1) Primary normal human epidermal keratinocytes (NHEKs) and dermal fibroblasts (NHDFs) were purchased from ThermoFisher (Carlsbad, CA, USA) and cultured in EpiLife™ medium (NHEKs) supplemented with Human Keratinocyte Growth Supplement (HKGS) or DMEM (NHDFs) + 10% FBS. All cell types were seeded in plates with growth factor-supplemented medium for 24 h and later media was replaced with growth factor-depleted media for an additional 24 h before treatments and grown at normal conditions (5% CO2; 37 °C).
(§2) Cells were pre-incubated for 2–6 h with test materials (1% v/v ethanol vehicle) in fresh growth factor-depleted media in triplicates. NHEKs were induced by 5 ng/mL TPA for 24 h or irradiated with 25 mJ/cm^2 (15 s) broadband 305–12 nm UVB (Daavlin; Bryan, OH, USA) without test materials and incubated for an additional 18 h. NHDFs were irradiated with 12.5 J/cm^2 UVA (350–12 nm; 40 min) and later incubated without test materials for an additional 18 h. Media supernatants were harvested after induction and used to measure levels of Interleukin-6 (IL-6), Interleukin-8 (IL-8), collagenase (pro-MMP1) or tumor necrosis factor-α (TNF-α) by sandwich ELISA kits (BD Biosciences; San Jose, CA, USA or R&D Systems; Minneapolis, MN, USA). Cells were subjected to viability tests by MTS reduction assay (Promega; Madison, WI, USA).
(§3) Statistical significance was determined by ANOVA followed by a Dunnett multiple comparisons test using p-values less than 0.05 as a significant difference. For all biochemical measurements and cytokine levels, samples were assayed in triplicate. Cytokine dose–response curves were generated by fitting data with the Hill, three-parameter equation using the Sigma Plot software, from which the IC50 and maximum inhibition were determined.

NHEK-UVB-TNFα = assay: UVB-induced TNFα release from NHEKs (ELISA); assay type: cell-based, human
Protocol: as §1, §2, §3

[1] = Cell-free antioxidant ABTS assay by metmyoglobin; assay type: biochemical
Excerpt: (§4) Radical scavenging antioxidant assay was estimated using the colorimetric antioxidant assay kit obtained from Cayman Chemical Company (Ann Arbor, MI, USA). ABTS (2, 2′-Azino-bis-[3-ehthylbenzthiazoline sulphonate]) was used as the chromogen, which changes into a colored monocation radical form (ABTS^•+) by metmyoglobin in the presence of hydrogen peroxide, and monitored by measuring absorption at 750 nm using a plate reader (Envision-PerkinElmer; Waltham, MA, USA). Antioxidant inhibition was calculated based on the discoloration of ABTS by serial concentrations of test compounds added simultaneously with myoglobin and hydrogen peroxide. NHDF cells were cultured in DMEM with 10% fetal bovine serum (FBS) and seeded into black wall 96-well plates and incubated for 24 h before treatment. Cells were pre-treated for 3 h with and without test compounds (0.01–3 µM final concentrations) and labeled with 50 µM of dichloro-dihydro-fluorescein diacetate (DCFH-DA). Total fluorescence (Excitation = 485 nm; Emission = 535 nm) was measured after cells were co-incubated for 20 min with 0.1 mM H2O2 and the test compounds. Cell protection against oxidative stress was calculated using the following formula: Cell protection (%) = [(test compound (%) − hydrogen peroxide-only (%))/([…] − untreated control (%))] × 100.

NHEK-UVB-IL-8 = assay: UVB-induced IL-8 release from NHEKs (ELISA); assay type: cell-based, human
Protocol: as §1, §2, §3

NHDFs intracellular ROS = assay: Intracellular antioxidant assay (DCFH-DA) in NHDFs after H2O2 induction; assay type: cell-based, human; conditions: 3 h pre-incubation
Excerpt: as §4

NHEK-TPA-IL-8 = assay: TPA-induced IL-8 release from NHEKs (ELISA); assay type: cell-based, human; conditions: 5 ng/mL TPA, 24 h
Protocol: as §1
Cells were pre-incubated for 2–6 h with test materials (1% v/v ethanol vehicle) in fresh growth factor-depleted media in triplicates. NHEKs were induced by 5 ng/mL TPA for 24 h or irradiated with 25 mJ/cm^2 (15 s) broadband 305–12 nm UVB (Daavlin; Bryan, OH, USA) without test materials and incubated for an additional 18 h. NHDFs were irradiated with 12.5 J/cm^2 UVA (350–12 nm; 40 min) and later incubated without test materials for an additional 18 h. […]
as §3, with “For all biochemical measurements and cytokine levels, samples were assayed in triplicate.” left out

[2] = target: T1, PME-1 (Protein phosphatase methylesterase 1) (Homo sapiens, UniProt Q9Y570); assay: Demethylation of PP2A by PME-1, radioactive filter binding assay; assay type: biochemical; conditions: GSE flavonoids / grape seed components; read-out: IC50, PP2A demethylation activity assay
T1 sequence (Q9Y570 1-386): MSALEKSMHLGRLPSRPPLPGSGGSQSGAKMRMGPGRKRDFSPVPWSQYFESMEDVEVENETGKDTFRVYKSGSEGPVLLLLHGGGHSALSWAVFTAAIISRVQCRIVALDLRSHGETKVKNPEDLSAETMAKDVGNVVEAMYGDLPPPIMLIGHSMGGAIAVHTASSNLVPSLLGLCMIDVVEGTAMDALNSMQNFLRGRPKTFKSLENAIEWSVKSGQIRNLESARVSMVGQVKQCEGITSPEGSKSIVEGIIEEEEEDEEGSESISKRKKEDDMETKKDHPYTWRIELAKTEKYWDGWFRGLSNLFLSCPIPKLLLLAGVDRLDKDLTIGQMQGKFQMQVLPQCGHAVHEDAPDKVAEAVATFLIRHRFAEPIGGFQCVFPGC
Protocol: [^3H]-labeled methylated PP2A AC dimer was prepared by incubating PP2A, LCMT1 and [^3H]-SAM (PerkinElmer; Waltham, MA, USA) in 50 mM MOPS-Na (pH 7.2), 5 mM MgCl2, and 1 mM DTT at room temperature for 1 h. Demethylation of PP2A by PME-1 (Protein phosphatase methylesterase 1) was measured using the radioactive filter binding assay format. 20 nM PME-1 was incubated for 15 min with extract or compound, then 20 nM of [^3H]-labeled methylated PP2A AC dimer was added. Reactions were run at room temperature for 30 min then applied to a 96-well filter plate (MilliporeSigma; Burlington, MA, USA.) containing 30% TCA where proteins were precipitated and separated from the excess of [^3H]-SAM by washing with 70% ethanol. [^3H]-incorporation was measured using TopCount NXT scintillation counter (PerkinElmer; Waltham, MA, USA). IC50 values were generated from dose–response curves using a four-parameter logistic curve fit in SigmaPlot (Systat Software, Inc., Palo Alto, CA, USA).

[3] = Homo sapiens, NHEK, light or radiation study, UVB 25 mJ/cm^2

## O=C1O[C@H]([C@@H](O)CO)C(O)=C1O [Vitamin C]
NHDFs-UVA-IL-6; UVA 12.5 J/cm^2
  IC50 NHDFs-UVA-IL-6: >10 µg/mL
NHEK-UVB-TNFα; UVB 25 mJ/cm^2
  IC50 NHEK-UVB-TNFα: >10 µg/mL
[1]
  IC50, H2O2-induced free radical ROS production: 10.1 µg/mL (≈ 57.3 µM)
NHEK-UVB-IL-8; UVB 25 mJ/cm^2
  IC50 NHEK-UVB-IL-8: >10 µg/mL
NHDFs intracellular ROS
  IC50, intracellular oxidative stress: 0.6 µg/mL (≈ 3.41 µM)

## C[C@H]1C[C@H]2[C@@H]3CCC4=CC(=O)C=C[C@]4(C)[C@@]3(F)[C@@H](O)C[C@]2(C)[C@@]1(O)C(=O)CCl [Clobetasol]
NHEK-TPA-IL-8
  IC50 NHEK-TPA-IL-8: 0.0005 ng/mL (≈ 1.22e-06 µM)

## Cc1c(C)c2c(c(C)c1O)CC[C@@](C)(CCC[C@H](C)CCC[C@H](C)CCCC(C)C)O2 [Vitamin E, α-tocopherol]
[1]
  IC50, H2O2-induced free radical ROS production: 18.6 µg/mL (≈ 43.2 µM)
NHDFs intracellular ROS; Homo sapiens, NHDF, read-out: IC50, intracellular oxidative stress
  IC50: > 100 µg/mL

## COc1cc(/C=C/C(=O)O)ccc1O [Ferulic acid]
NHDFs-UVA-IL-6; UVA 12.5 J/cm^2
  IC50 NHDFs-UVA-IL-6: 0.01 µg/mL (≈ 0.0515 µM)
NHEK-UVB-TNFα; UVB 25 mJ/cm^2
  IC50 NHEK-UVB-TNFα: <0.01 µg/mL
[2]
  IC50: > 15 µM
NHEK-UVB-IL-8; UVB 25 mJ/cm^2
  IC50 NHEK-UVB-IL-8: <0.01 µg/mL

## CC1=C(/C=C/C(C)=C/C=C/C(C)=C/C(=O)O)C(C)(C)CCC1 [ATRA, all-trans retinoic acid]
NHDFs-UVA-IL-6; Homo sapiens, NHDF, light or radiation study, UVA 12.5 J/cm^2
  IC50: > 1 µg/mL
NHDFs-UVA-IL-6; highest non-toxic dose tested
  effect on UVA-induced IL-6 release (in words): did not have any effect
NHEK-UVB-TNFα; [3]
  IC50: > 1 µg/mL
NHEK-UVB-TNFα; highest non-toxic dose tested
  effect on UVB-induced TNFα release (in words): did not have any effect
NHEK-UVB-IL-8; [3]
  IC50: > 1 µg/mL
NHEK-UVB-IL-8; highest non-toxic dose tested
  effect on UVB-induced IL-8 release (in words): did not have any effect

— publication PMC8587015, “AGSE: A Novel Grape Seed Extract Enriched for PP2A Activating Flavonoids That Combats Oxidative Stress and Promotes Skin Health” (Molecules, 2021)
